Assay results from paper PMC6615598, “Novel antibiotics effective against gram-positive and -negative multi-resistant bacteria with limited resistance” (PLoS Biology, 2019).
“And” between values parts separate entries of the source, which are not always exact repeats. Equal entries are not always repeated. Starred links: 1 amine or outer side, 2 acyl side, 3 side chain; linkers in the order of their positions; H or OH if unused. Non-standard residues stand in square brackets, D forms with d. Residues, ends and D or L forms follow the SMILES beside them. azaβ3(1Nal) = O=C(CN(Cc1cccc2ccccc12)N[*:1])[*:2]

How the values were obtained:
[1] = system: S. aureus 33845; assay: microbe, parasite or virus in culture; settings: 33845
Procedure: (10−4 M final concentrations). At selected time intervals, 100 μl of reaction mixture was collected, quenched by 200 μl 95% EtOH, and adjusted at pH 2 to prevent peptide adsorption to serum proteins. […] Supernatants were analyzed by RP-HPLC on an Xbridge C18 column with a linear gradient of water, 0.08% TFA, and acetonitrile with 1% TFA. HPLC peak areas were used to calculate the percentages of intact compound remaining at the various time points. MIC and MBC values were determined in triplicate in many ESKAPE clinical isolates, including a dozen MDR S. aureus, by the broth microdilution method. Peptidomimetics and antibiotics were assayed in a concentration range of 1 to 128 μM. The bacterial inoculum (5 × 10^5 colony-forming units [CFUs]/well) was prepared in MHB or CAMHB (150 μl). A Biotek Synergy 2 spectrophotometer was used to record the results after 18–20 h incubation at 35°C (±2°C). […] After every hour of culture for 4 h, serial dilutions were plated on BHI plates and incubated overnight at 37°C, and then the CFUs were counted and expressed as log CFU/ml. Phosphate-buffered saline (PBS)-exposed S. aureus MRSA was included as a control.
Supplementary file pbio.3000337.s007.docx: S1 Table Antibacterial activity of the 4 peptidomimetics focusing on 9 S. aureus MDR clinical isolates. Clinical isolates BCB/POE and 740404 DUN are from human sepsis. The other strains are from catheter infections or suppurating wounds. Brilacidin was used as a control. MDR, multidrug resistant. (DOCX) Click here for additional data file.

[2] = system: P. aeruginosa LESB58; assay: Cutaneous abscess mouse model (CFU); assay type: in vivo, mice
Procedure: For the cutaneous abscess model, the mice were randomly divided into 5 sets. The mice were anesthetized with isoflurane, their dorsal fur shaved, and their skin disinfected with 70% ethanol. An overnight culture of S. aureus MRSA or P. aeruginosa LESB58 was washed with 0.9% NaCl, and then a subcutaneous injection of 2 × 10^9 CFUs and an equal amount of sterile Cytodex microcarrier beads (20 mg.ml^−1, Sigma) for S. aureus MRSA, or 10^8 CFUs for P. aeruginosa were injected into the shaved area. […] Mice were monitored every day and then euthanized with CO2 on Day 6 or on Day 3. Abscesses were excised, measured, and homogenized in PBS using an Ultra-Turax. Serial dilutions of the samples were plated on BHI (MRSA) or 2YT medium (LESB58) plates and then incubated overnight at 37°C. Afterward, the CFUs were counted and expressed as log CFU/ml. Dermonecrosis areas were calculated according to the formula π × L × W. ATP levels were determined with an ATP assay kit (Promega) according to manufacturer instructions on sets of 5 colonies harboring the SCV phenotype, and sets of 5 colonies harboring a normal phenotype, after growth on BHI plates.

[3] = system: E. coli ML-35p; assay: Inner membrane permeability, ONPG cleavage; assay type: cell-based; settings: concentration near MIC
Procedure: Outer and inner membrane permeability was determined on E. coli ML-35p, a lactose permease-deficient strain [8]. Permeation assays were carried out on 100 μl MHB from bacteria cultures grown to 0.15 OD600 (10^7 CFU/ml). Nitrocefin (20 μg/ml) was added to the tested molecules at a concentration near to their MICs, and cleavage was monitored by light absorption at 500 nm (outer membrane monitoring). Inner membrane monitoring of cleavage of ONPG (100 μg/ml) and substrate was monitored at 420 nm. Polymyxin B was a positive control, while a bacterial suspension in MHB was the negative control. Permeation assays were also performed on gram-positive S. aureus membranes (MSSA and MRSA) by fluorescence assay with SYTO Green nucleic acid stain (Life Technologies) in black flat-bottom 96-well microtiter plates (Greiner) in biological triplicate. Bacteria were grown to 0.3–0.4 OD600 in CAMHB at 37°C and centrifuged at 3,500 tr/min for 10 min. The pellet was washed and dissolved in PBS to an absorbance of 0.4 at 600 nm (approximately 2.10^8 CFU/ml). […] The amount of 50 μL of bacteria/SYTO Green mixture was added to each well containing compounds serially diluted in PBS, and fluorescence was measured at 37°C for up to 12 h using a spectrophotometer (BIOTEK, Tungsten-Halogen Lamp) with 485 nm excitation and 525 nm emission wavelengths.

[4] = system: S. aureus Newman; assay: SEM and TEM after treatment at MIC; assay type: cell-based; settings: S. aureus treated at the MIC, 2 h 37°C
Procedure: S. aureus Newman and E. coli K12 were cultured in MHB to an OD600 of 0.5 (10^8 CFU/ml). After adding peptides, samples were incubated at 160 rpm for 2 h at 37°C before centrifugation. Bacteria were exposed to pseudopeptide concentrations at their MIC. Untreated controls were prepared under identical conditions. Cell pellets were obtained after cell suspension centrifugation (1,000–3,000g for 5 min). […] S. aureus Newman samples were embedded in 2% agar and dehydrated in a graded series of increasing ethanol concentrations (50, 70, 90, and 100% v/v). For E. coli K12, the samples were placed on a 0.2 μm filter disc, dehydrated in a series of increasing ethanol concentrations, and vacuum dried for 48 h. For SEM observation, specimens were obtained after preparation with a Leica EM CPD300 critical point dryer. A Leica EM ACE200 was used for gold palladium metallization for 30 s. Sample observation was performed with a JEOL JSM-6301F microscope at 7 kV with a 15 mm work distance. TEM was also used to visualize the morphology and intracellular alteration of peptide-treated bacterial cells. For this, bacteria were grown and incubated with AMPs as described above for SEM sample preparation, and controls were prepared in standard medium. Cell pellets were also prepared as described above. […]

For `CC(C)[C@@H]1NC(=O)[C@H](CCCNC(=N)N)NC(=O)[C@H](CCCNC(=N)N)NC(=O)CN(Cc2cccc3ccccc23)NC(=O)[C@H](Cc2ccccc2)NC(=O)CN(Cc2cccc3ccccc23)NC(=O)[C@H](CCCCN)NC1=O` [Pep19] (cyclo([azaβ3(1Nal)]F[azaβ3(1Nal)]RRVK)), the MIC [1] was 16 mg/L^-1, the “CFU counts per abscess” value ([2]; cutaneous abscesses induced by P. aeruginosa in mice, repeated doses post-infection, 30mg/kg, second data set, individual values) was 5.3 log Cfu/ml and 4.34 log Cfu/ml and 3.16 log Cfu/ml and 3.11 log Cfu/ml and 2.85 log Cfu/ml and 6.21 log Cfu/ml and 4.95 log Cfu/ml and the “Reduction of the bacterial load of abscess” value ([2]; mice, P. aeruginosa LESB58, 30 mg.kg^−1 subcutaneous twice a day for 2 d, day 3) was roughly 50 fold. For the same molecule, the Inner membrane permeation [3] was “most active” and the “Cell wall erosion by electron microscopy” value [4] was “eroded”.
